Results reported in patent US7241799B2, “Cannabimimetic indole derivatives” (University of Connecticut, priority 1999, dated 2007).
Read-outs that look alike come from different tables or passages of the source.

Assays:
CB2 receptor = target: T1, CB2 receptor (Mus musculus, UniProt P47936); experiment: CB2 receptor binding, [3H] CP-55,940 displacement, mouse spleen membranes; details: for Ki: mouse spleen membranes, [3H] CP-55,940, read-out: Kl CB2 (converted)
T1 construct: membranes were prepared from frozen mouse spleen; from tissue; host or cells: mouse spleen
T1 sequence (P47936 whole entry): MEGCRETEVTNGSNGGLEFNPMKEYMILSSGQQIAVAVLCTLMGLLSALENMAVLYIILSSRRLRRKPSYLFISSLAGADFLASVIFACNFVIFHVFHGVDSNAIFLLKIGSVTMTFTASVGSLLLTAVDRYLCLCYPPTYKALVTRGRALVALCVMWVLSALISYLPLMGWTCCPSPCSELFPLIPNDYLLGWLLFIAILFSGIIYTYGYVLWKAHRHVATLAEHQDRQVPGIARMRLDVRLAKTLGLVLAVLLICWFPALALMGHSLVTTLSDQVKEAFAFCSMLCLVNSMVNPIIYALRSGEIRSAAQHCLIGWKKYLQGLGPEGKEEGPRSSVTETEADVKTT
Method: (§1) The materials were tested for CB2 receptor binding affinity and for CB1 receptor affinity (to determine selectivity for the CB2 receptor). As used herein, “binding affinity” is represented by the IC50 value which is the concentration of an analog required to occupy the 50% of the total number (Bmax) of the receptors. The lower the IC50 value the higher the binding affinity.
(§2) The treated membranes were subsequently used in the binding assay described below. Approximately 30 μg of membranes were incubated in silanized 96-well microtiter plate with TME containing 0.1% essentially fatty acid-free bovine serum albumin (BSA), 0.8 nM [^3H] CP-55,940, and various concentrations of test materials at […] for 1 hour. The samples were filtered using Packard Filtermate 196 and Whatman GF/C filterplates and washed with wash buffer (TME) containing 0.5% BSA. Radioactivity was detected using MicroScint 20 scintillation cocktail added directly to the dried filterplates, and the filterplates were counted using a Packard Instruments Top-Count. Nonspecific binding was assessed using 100 nM CP-55,940. Data collected from three independent experiments performed with duplicate determinations was normalized between 100% and 0% specific binding for [^3H] CP-55,940, determined using buffer and 100 nM CP-55,940. The normalized data was analyzed using a 4-parameter nonlinear logistic equation to yield IC50 values. Data from at least two independent experiments performed in duplicate was used to calculate IC50 values which were converted to Ki values using the assumptions of Cheng et al, Relationship Between the Inhibition Constant (Ki) and the concentration of Inhibitor which causes 50% Inhibition (IC50) of an Enzymatic Reaction, Biochem. Pharmacol., 22, 3099–3102, (1973), which is incorporated by reference herein.
For the CB2 receptor binding studies, membranes were prepared from frozen mouse spleen essentially according to the procedure of P. R. Dodd et al, A Rapid Method for Preparing Synaptosomes: Comparison with Alternative Procedures, Brain Res., 226, 107–118 (1981) which is incorporated by reference herein. Silanized centrifuge tubes were used throughout to minimize receptor loss due to adsorption. The CB2 binding assay was conducted in the same manner as for the CB1 binding assay. The binding affinities (Ki) were also expressed in nanomoles (nM).

CB1 receptor = target: T2, CB1 receptor (Rattus norvegicus, UniProt P20272); experiment: CB1 receptor binding, [3H] CP-55,940 displacement, rat forebrain membranes; details: for Ki: rat forebrain membranes, 0.8 nM [3H] CP-55,940, read-out: Kl CB1; for selectivity for the CB1 receptor: binding selectivity CB1 versus CB2, from the results in the TABLES
T2 construct: membranes were prepared from rat forebrain membranes; from tissue; host or cells: rat forebrain
T2 sequence (P20272 whole entry): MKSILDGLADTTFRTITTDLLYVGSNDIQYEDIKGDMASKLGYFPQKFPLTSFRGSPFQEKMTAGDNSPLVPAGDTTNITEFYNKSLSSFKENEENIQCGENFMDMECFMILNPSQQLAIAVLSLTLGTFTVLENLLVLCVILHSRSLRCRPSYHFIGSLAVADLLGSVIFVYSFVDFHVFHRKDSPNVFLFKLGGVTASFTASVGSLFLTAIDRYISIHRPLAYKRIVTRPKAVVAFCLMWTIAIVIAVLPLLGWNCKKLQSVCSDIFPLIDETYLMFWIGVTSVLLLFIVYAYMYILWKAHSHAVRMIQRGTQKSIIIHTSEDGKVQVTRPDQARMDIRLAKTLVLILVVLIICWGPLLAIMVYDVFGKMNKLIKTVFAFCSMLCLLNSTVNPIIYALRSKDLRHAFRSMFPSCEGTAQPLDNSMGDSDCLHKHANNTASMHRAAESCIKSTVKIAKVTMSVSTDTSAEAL
Method: as §1
For the CB1 receptor binding studies, membranes were prepared from rat forebrain membranes according to the procedure of P. R. Dodd et al, A Rapid Method for Preparing Synaptosomes: Comparison with Alternative Procedures, Brain Res., 107–118 (1981). The binding of the novel analogues to the CB1 cannabinoid receptor was assessed as described in W. A. Devane et al, Determination and Characterization of a Cannabinoid Receptor in a Rat Brain, Mol. Pharmacol., 34, 605–613 (1988) and A. Charalambous et al, 5′-azido Δ^8 THC: A Novel Photoaffinity Label for the Cannabinoid Receptor, J. Med. Chem., 35, 3076–3079 (1992) with the following changes. The above articles are incorporated by reference herein.
Membranes, previously frozen at −80° C., were thawed on ice. To the stirred suspension was added three volumes of TME (25 mM Tris-HCl buffer, 5 mM MgCl2 and 1 mM EDTA) at a pH 7.4. The suspension was incubated at 4° C. for 30 min. At the end of the incubation, the membranes were pelleted and washed three times with TME.
as §2

Row | Compound | Ki (CB2 receptor; TABLE 2) [nM] | Ki (CB1 receptor; TABLE 2) [nM] | Ki (CB2 receptor; TABLE 1, racemic samples) [nM] | Ki (CB1 receptor; TABLE 1, racemic samples) [nM] | other results
1 | CCCCCn1cc(C(=O)c2cc(N=[N+]=[N-])ccc2I)c2ccccc21 [AM1205] | 196 | 117 |  |  | 
2 | Cc1ccc(S(=O)(=O)OCCCCCn2c(C)c(C(=O)c3ccccc3I)c3ccccc32)cc1 [AM2227] | 2970 | 1020 |  |  | 
3 | CCCCCCn1c(C)c(C(=O)c2ccccc2I)c2ccccc21 [AM682] | 693 | 332 |  |  | 
4 | Cc1c(C(=O)c2ccccc2I)c2ccc(N)cc2n1CC1CCCCN1C (racemic) [AM665] |  |  | 20.3 | 206 | 
5 | CN1CCCCC1Cn1cc(C(=O)c2cccc3ccccc23)c2ccccc21 (centres unmarked) [AM1220] |  |  | 73.4 | 3.88 | 
6 | CC(=O)OCCCn1cc(C(=O)c2cccc3ccccc23)c2ccccc21 [AM1284] | 103 | 127 |  |  | 
7 | CC(=O)OCCCCCn1c(C)c(C(=O)c2ccccc2I)c2ccccc21 [AM689] | 1020 | 2280 |  |  | 
8 | Cc1c(C(=O)c2ccccc2)c2ccc(N=C=S)cc2n1CC1CCCCN1C (racemic) [AM684] |  |  | 44.8 | 181 | 
9 | O=C(c1ccccc1I)c1cn(CCCCCF)c2ccccc12 [AM694] | 1.44 | 0.08 |  |  | selectivity for the CB1 receptor (CB1 receptor): high selectivity for the CB1 receptor
10 | O=C(c1cccc2ccccc12)c1cn(CCCCCF)c2cc(I)ccc12 [Am1230] | 2.4 | 1.1 |  |  | 
11 | Cc1c(C(=O)c2ccccc2)c2ccc(N=[N+]=[N-])cc2n1CC1CCCCN1C (racemic) [AM671] |  |  | 59.1 | 155 | 
12 | O=C(c1cccc2ccccc12)c1cn(CCCCCO)c2cc([N+](=O)[O-])ccc12 [AM1234] | 197 | 77.6 |  |  | 
13 | Cc1c(C(=O)c2ccccc2I)c2ccccc2n1CCCCCI [AM2229] | 46.2 | 116 |  |  | 
14 | CN1CCCCC1Cn1cc(C(=O)c2cccc3ccccc23)c2ccccc21 (centres unmarked) [AM1296] |  |  | 3.88 | 7.57 | 
15 | O=C(c1cccc2ccccc12)c1cn(CCCCCI)c2ccccc12 [AM2203] | 45.8 | 7.8 |  |  | 
16 | Cc1c(C(=O)c2cccc3ccccc23)c2ccc(N=[N+]=[N-])cc2n1CC1CCCCN1C (racemic) [AM1231] |  |  | 34.2 | 31.2 | 
17 | CC(=O)OCCCCCn1cc(C(=O)c2cccc3ccccc23)c2ccc([N+](=O)[O-])cc21 [AM1233] | 154 | 142 |  |  | 
18 | CCCCn1c(C)c(C(=O)c2ccccc2I)c2ccccc21 [AM683] | 281 | 272 |  |  | 
19 | O=C(c1cccc2ccccc12)c1cn(CCCCCF)c2ccccc12 [AM2201] | 2.6 | 1 |  |  | 
20 | CN1CCCCC1Cn1cc(C(=O)c2ccc([N+](=O)[O-])c3ccccc23)c2ccccc21 (centres unmarked) [AM1299] |  |  | 13.5 | 12.4 | 
21 | O=C(c1cccc2ccccc12)c1cn(CCCCF)c2ccccc12 [AM1295] | 30.7 | 2.5 |  |  | selectivity for the CB1 receptor (CB1 receptor): high selectivity for the CB1 receptor
22 | Cc1ccc(S(=O)(=O)OCCCn2cc(C(=O)c3cccc4ccccc34)c3ccccc32)cc1 [AM1289] | 78.6 | 360 |  |  | selectivity for the CB2 receptor (CB2 receptor; binding selectivity CB2 versus CB1, from the results in the TABLES): high selectivity for the CB2 receptor
23 | CN1CCCCC1Cn1cc(C(=O)c2cccc3ccccc23)c2ccc(N)cc21 (racemic) [AM1219] |  |  | 31.3 | 96.6 | 
24 | CN1CCCCC1Cn1cc(C(=O)C23CC4CC(CC(C4)C2)C3)c2ccccc21 (centres unmarked) [AM1248] |  |  | 332 | 100 | 
25 | CN1CCCCC1Cn1cc(C(=O)c2ccc(N=C=S)c3ccccc23)c2ccc(N=C=S)cc21 (racemic) [AM2215] |  |  | 99.6 | 235 | 
26 | Cc1c(C(=O)c2cccc3ccccc23)c2ccc([N+](=O)[O-])cc2n1CC1CCCCN1C (centres unmarked) [AM1221] |  |  | 0.28 | 52.3 | 
27 | CCCCCCCn1c(C)c(C(=O)c2ccccc2I)c2ccccc21 [AM672] | 1510 | 1600 |  |  | 

Row | Compound | Ki (CB2 receptor; TABLE 2) [nM] | Ki (CB1 receptor; TABLE 2) [nM] | Ki (CB2 receptor; TABLE 1, racemic samples) [nM] | Ki (CB1 receptor; TABLE 1, racemic samples) [nM] | other results
28 | CC(=O)OCCCCCn1cc(C(=O)c2ccccc2I)c2ccccc21 [AM692] | 1520 | 2660 |  |  | 
29 | CN1CCCCC1Cn1cc(C(=O)c2cccc3ccccc23)c2ccc(N=[N+]=[N-])cc21 (racemic) [AM1224] |  |  | 0.73 | 20.2 | 
30 | CCCCCn1cc(C(=O)c2ccccc2I)c2ccccc21 [AM679] | 49.5 | 13.5 |  |  | 
31 | O=C(c1ccc(N=C=S)c2ccccc12)c1cn(CCCCI)c2ccccc12 [AM2216] | 213 | 42.4 |  |  | 
32 | N#CCCCCn1cc(C(=O)c2cccc3ccccc23)c2ccc([N+](=O)[O-])cc21 [AM2231] | 23.9 | 4.9 |  |  | 
33 | Cc1c(C(=O)c2ccccc2I)c2ccc([N+](=O)[O-])cc2n1CC1CCCCN1C (racemic) [AM664] |  |  | 80 | 40 | 
34 | Cc1ccc(S(=O)(=O)OCCCCn2cc(C(=O)c3cccc4ccccc34)c3ccccc32)cc1 [AM1286] | 1290 | 1510 |  |  | 
35 | CCCCCn1cc(C(=O)c2cc([N+](=O)[O-])ccc2I)c2ccccc21 [AM1202] | 22.9 | 98.9 |  |  | 
36 | CCCCCn1cc(C(=O)c2cc(N)ccc2I)c2ccccc21 [AM1203] | 88.9 | 63.6 |  |  | 
37 | O=C(c1cccc2ccccc12)c1cn(CCCCO)c2ccccc12 [AM1283] | 196 | 117 |  |  | 
38 | Cc1c(C(=O)c2cccc3ccccc23)c2ccc(N)cc2n1CC1CCCCN1C (racemic) [AM1225] |  |  | 38.5 | 440 | 
39 | O=C(c1cccc2ccccc12)c1cn(CCCCCO)c2cc(I)ccc12 [AM1238] | 17.3 | 3.1 |  |  | 
40 | CCCCCn1c(C)c(C(=O)c2ccccc2I)c2ccccc21 [AM669] | 38.6 | 47.2 |  |  | 
41 | O=C(c1cccc2ccccc12)c1cn(CCCCN=C=S)c2ccccc12 [AM1291] | 1800 | 2960 |  |  | 
42 | N#CCCCCn1cc(C(=O)c2cccc3ccccc23)c2ccccc21 [AM2232] | 1.48 | 0.28 |  |  | 
43 | CC(=O)OCCCCCn1cc(C(=O)c2cccc3ccccc23)c2ccc(N)cc21 [AM1236] | 559 | 1130 |  |  | 
44 | CN1CCCCC1Cn1cc(C(=O)c2cc(N=C=S)ccc2I)c2ccc(N=C=S)cc21 (racemic) [AM2223] |  |  | 29.9 | 64.8 | 
45 | Cc1ccc(S(=O)(=O)OCCCCCn2cc(C(=O)c3ccccc3I)c3ccccc32)cc1 [AM697] | 1120 | 1310 |  |  | 
46 | CN1CCCCC1Cn1cc(C(=O)c2cc(N=[N+]=[N-])ccc2I)c2ccc(N=[N+]=[N-])cc21 (racemic) [AM2209] |  |  | 41.8 | 48.8 | 
47 | O=C(c1ccccc1I)c1cn(CCCCCO)c2ccccc12 [AM693] | 526 | 835 |  |  | 
48 | O=C(c1cccc2ccccc12)c1cn(CCCCCF)c2cc([N+](=O)[O-])ccc12 [AM1235] | 20.4 | 1.5 |  |  | selectivity for the CB1 receptor (CB1 receptor): high selectivity for the CB1 receptor
49 | O=C(c1ccccc1I)c1cn(CCCCCN=C=S)c2ccccc12 [AM1201] | 110 | 106 |  |  | 
50 | CN1CCCCC1Cn1cc(C(=O)c2cc3ccc4cccc5ccc(c2)c3c45)c2ccccc21 (racemic) [AM1253] |  |  | 126 | 60.3 | 
51 | CCCCCn1cc(C(=O)c2cc(N=C=S)ccc2I)c2ccccc21 [AM1204] | 3350 | 5660 |  |  | 
52 | O=C(c1cccc2ccccc12)c1cn(CCCCCN=C=S)c2ccccc12 [AM2204] | 24.4 | 7.5 |  |  | 
53 | Cc1c(C(=O)c2ccccc2I)c2ccc(N=[N+]=[N-])cc2n1CC1CCCCN1C (racemic) [AM1215] |  |  | 21.9 | 40.7 | 
